Assay results: article PMC10999543, “Identification of kinase modulators as host-directed therapeutics against intracellular methicillin-resistant Staphylococcus aureus” (Frontiers in Cellular and Infection Microbiology, 2024)
Like-named read-outs stand apart in the source and are kept apart here.

Assays:
intracellular MRSA = assay type: cell-based, Staphylococcus aureus; settings: for %GFP+ rep 1 / z-scoreMRSA+ rep 1: replicate 1; for %GFP+ rep 1 / %GFP+ rep 2 / %GFP+ rep 3 / z-scoreMRSA+ mean / z-scoreMRSA+ rep 1 / z-scoreMRSA+ rep 2 / z-scoreMRSA+ rep 3: MRSA-infected HeLa cells; for %GFP+ rep 2 / z-scoreMRSA+ rep 2: replicate 2; for %GFP+ rep 3 / z-scoreMRSA+ rep 3: replicate 3; for z-scoreMRSA+ mean: mean of 3 replicates
How it was run: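 HeLa cells infected with GFP-MRSA (MOI ~6.8), gentamicin-cleared, then incubated overnight at 37°C with inhibitors plus 5 µg/ml gentamicin; DMSO as negative control, triplicates. Flow cytometry gave % GFP-positive cells and cell count (viability surrogate); hits by plate z-score (MRSA ≤ -2, HeLa count ≥ -3).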

HeLa cells = test: Compound screen by flow cytometry: HeLa cell count as surrogate readout of cell viability (z-scoreHeLa); assay type: cell-based, human; settings: for cell count rep 1 / z-scoreHeLa rep 1: replicate 1; for cell count rep 1 / cell count rep 2 / cell count rep 3 / z-scoreHeLa mean / z-scoreHeLa rep 1 / z-scoreHeLa rep 2 / z-scoreHeLa rep 3: HeLa cell count; for cell count rep 2 / z-scoreHeLa rep 2: replicate 2; for cell count rep 3 / z-scoreHeLa rep 3: replicate 3; for z-scoreHeLa mean: mean of 3 replicates
How it was run: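 HeLa cells were infected with GFP-MRSA (mean MOI 6.8 ± 4.6) for 1 h, and extracellular bacteria were killed with 30 µg/ml gentamicin. Cells were then incubated overnight with kinase inhibitors in 5 µg/ml gentamicin, in triplicate against DMSO controls. Flow-cytometric cell count served as a viability surrogate, expressed as a plate z-score.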

[1] = Yes/No: effect without cell death
[2] = PKIS compound screen, Yes/No call (effect without cell death)
[3] = PKIS compound screen, Yes/No call on z-scoreMRSA+
[4] = PKIS compound screen, Yes/No call on z-scoreHeLa

| SMILES | effect (intracellular MRSA; Yes/No call from z-scoreMRSA+) | hit (intracellular MRSA; [1]) | z-scoreMRSA+ mean (intracellular MRSA; compound screen) | %GFP+ rep 1 (intracellular MRSA; PKIS compound screen raw data) | %GFP+ rep 2 (intracellular MRSA; PKIS compound screen raw data) | %GFP+ rep 3 (intracellular MRSA; PKIS compound screen raw data) | z-scoreMRSA+ mean (intracellular MRSA; PKIS compound screen) | z-scoreMRSA+ rep 1 (intracellular MRSA; PKIS compound screen) | z-scoreMRSA+ rep 2 (intracellular MRSA; PKIS compound screen) | z-scoreMRSA+ rep 3 (intracellular MRSA; PKIS compound screen) | hit (intracellular MRSA; [2]) | effect (intracellular MRSA; [3]) | cell count rep 1 (HeLa cells; PKIS compound screen raw data) | cell count rep 2 (HeLa cells; PKIS compound screen raw data) | cell count rep 3 (HeLa cells; PKIS compound screen raw data) | z-scoreHeLa mean (HeLa cells; PKIS compound screen) | z-scoreHeLa rep 1 (HeLa cells; PKIS compound screen) | z-scoreHeLa rep 2 (HeLa cells; PKIS compound screen) | z-scoreHeLa rep 3 (HeLa cells; PKIS compound screen) | cell death (HeLa cells; [4]) | also measured |
| --- | --- | --- | --- | --- | --- | --- | --- | --- | --- | --- | --- | --- | --- | --- | --- | --- | --- | --- | --- | --- | --- |
| CS(=O)(=O)CCNCc1nc(-c2ccc3ncnc(Nc4ccc(OCc5cccc(F)c5)c(Cl)c4)c3c2)cs1 [GW583340C] | No | No | -1.71 | – | – | – | – | – | – | – | – | – | – | – | – | – | – | – | – | – | %GFP+ rep 1 (intracellular MRSA; PKIS compounds raw data): 17.5%; %GFP+ rep 2 (intracellular MRSA; PKIS compounds raw data): 15.0%; %GFP+ rep 3 (intracellular MRSA; PKIS compounds raw data): 17.3%; z-scoreMRSA+ rep 1 (intracellular MRSA; compound screen): -1.81; z-scoreMRSA+ rep 2 (intracellular MRSA; compound screen): -1.85; z-scoreMRSA+ rep 3 (intracellular MRSA; compound screen): -1.47; cell count rep 1 (HeLa cells; PKIS compounds raw data): 5969; cell count rep 2 (HeLa cells; PKIS compounds raw data): 5507; cell count rep 3 (HeLa cells; PKIS compounds raw data): 7162; cell death (HeLa cells; Yes/No call from z-scoreHeLa): No; z-scoreHeLa mean (HeLa cells; compound screen): 1.10; z-scoreHeLa rep 1 (HeLa cells; compound screen): 1.17; z-scoreHeLa rep 2 (HeLa cells; compound screen): 0.93; z-scoreHeLa rep 3 (HeLa cells; compound screen): 1.22 |
| CN(C)CCCNc1nccc(-c2c(-c3ccc(F)cc3)nn3cc(C(F)(F)F)ccc23)n1 [GW618013A] | – | – | – | 10.7% | 13.4% | 14.0% | -1.86 | -2.27 | -1.54 | -1.76 | No | No | 23652 | 24495 | 45248 | -0.21 | 0.54 | -1.92 | 0.75 | No | – |
| COc1cc(Nc2ncc(-c3ccccc3)o2)cc(OC)c1OC [GW627512B] | No | No | -0.71 | – | – | – | – | – | – | – | – | – | – | – | – | – | – | – | – | – | %GFP+ rep 1 (intracellular MRSA; PKIS compounds raw data): 11.0%; %GFP+ rep 2 (intracellular MRSA; PKIS compounds raw data): 12.1%; %GFP+ rep 3 (intracellular MRSA; PKIS compounds raw data): 12.6%; z-scoreMRSA+ rep 1 (intracellular MRSA; compound screen): -0.70; z-scoreMRSA+ rep 2 (intracellular MRSA; compound screen): -0.47; z-scoreMRSA+ rep 3 (intracellular MRSA; compound screen): -0.97; cell count rep 1 (HeLa cells; PKIS compounds raw data): 2360; cell count rep 2 (HeLa cells; PKIS compounds raw data): 2993; cell count rep 3 (HeLa cells; PKIS compounds raw data): 4653; cell death (HeLa cells; Yes/No call from z-scoreHeLa): No; z-scoreHeLa mean (HeLa cells; compound screen): -1.42; z-scoreHeLa rep 1 (HeLa cells; compound screen): -2.18; z-scoreHeLa rep 2 (HeLa cells; compound screen): -0.96; z-scoreHeLa rep 3 (HeLa cells; compound screen): -1.10 |
| COc1ccc(COc2ccc(Cc3cnc(N)nc3N)cc2OC)cc1 [GW632580X] | – | – | – | 19.0% | 19.0% | 21.7% | 0.36 | 0.36 | 0.14 | 0.58 | No | No | 16746 | 34970 | 43497 | -0.0017 | -0.51 | 0.0341 | 0.47 | No | – |
| CC(C)S(=O)(=O)N1CCN(Cc2ccc3c(c2)nc(NC(=O)c2ccsc2)n3C[C@H](O)c2ccccc2)CC1 [GW635815X] | – | – | – | 12.8% | 14.2% | 14.5% | -1.62 | -1.60 | -1.42 | -1.84 | No | No | 31634 | 26865 | 24254 | 0.52 | 0.24 | 0.27 | 1.04 | No | – |
| CCS(=O)(=O)c1ccc(OC)c(Nc2nccc(N(C)c3ccc4c(C)n[nH]c4c3)n2)c1 [GW654652C] | – | – | – | 13.7% | 14.6% | 13.9% | -1.43 | -1.32 | -1.18 | -1.79 | No | No | 21654 | 25320 | 35112 | -0.80 | 0.23 | -1.77 | -0.86 | No | – |
| CCS(=O)(=O)c1ccc(OC)c(Nc2ncc(-c3cccc(-c4ccccc4F)c3)o2)c1 [GW678313X] | – | – | – | 14.1% | 12.8% | 13.1% | -1.65 | -1.19 | -1.72 | -2.04 | No | No | 18271 | 31542 | 48427 | 0.12 | -0.28 | -0.61 | 1.26 | No | – |
| COC(=O)Nc1nc2ccc(Oc3ccc(NC(=O)Nc4cc(C(F)(F)F)ccc4F)cn3)cc2[nH]1 [GW681170A] | No | No | -0.20 | 25.2% | 20.8% | 21.7% | – | – | – | – | – | – | 5819 | 4937 | 6470 | – | – | – | – | – | z-scoreMRSA+ rep 1 (intracellular MRSA; compound screen): -0.0173; z-scoreMRSA+ rep 2 (intracellular MRSA; compound screen): -0.44; z-scoreMRSA+ rep 3 (intracellular MRSA; compound screen): -0.15; cell death (HeLa cells; Yes/No call from z-scoreHeLa): No; z-scoreHeLa mean (HeLa cells; compound screen): 0.78; z-scoreHeLa rep 1 (HeLa cells; compound screen): 1.06; z-scoreHeLa rep 2 (HeLa cells; compound screen): 0.49; z-scoreHeLa rep 3 (HeLa cells; compound screen): 0.78 |
| Cc1n[nH]c2cc(Nc3ccnc(Nc4cccc(CN5CCOCC5)c4)n3)ccc12 [GW682569X] | No | No | 0.19 | – | – | – | – | – | – | – | – | – | – | – | – | – | – | – | – | – | %GFP+ rep 1 (intracellular MRSA; PKIS compounds raw data): 15.4%; %GFP+ rep 2 (intracellular MRSA; PKIS compounds raw data): 15.0%; %GFP+ rep 3 (intracellular MRSA; PKIS compounds raw data): 13.7%; z-scoreMRSA+ rep 1 (intracellular MRSA; compound screen): 0.71; z-scoreMRSA+ rep 2 (intracellular MRSA; compound screen): 0.50; z-scoreMRSA+ rep 3 (intracellular MRSA; compound screen): -0.65; cell count rep 1 (HeLa cells; PKIS compounds raw data): 2071; cell count rep 2 (HeLa cells; PKIS compounds raw data): 1754; cell count rep 3 (HeLa cells; PKIS compounds raw data): 4807; cell death (HeLa cells; Yes/No call from z-scoreHeLa): No; z-scoreHeLa mean (HeLa cells; compound screen): -1.79; z-scoreHeLa rep 1 (HeLa cells; compound screen): -2.45; z-scoreHeLa rep 2 (HeLa cells; compound screen): -1.90; z-scoreHeLa rep 3 (HeLa cells; compound screen): -1.03 |
| O=C(Nc1ccc(Oc2ccc3nc(NC(=O)c4ccco4)[nH]c3c2)cc1)Nc1cc(C(F)(F)F)ccc1F [GW683134A] | Yes | Yes | -2.35 | 9.6% | 11.2% | 12.6% | – | – | – | – | – | – | 24828 | 19604 | 15141 | – | – | – | – | – | z-scoreMRSA+ rep 1 (intracellular MRSA; compound screen): -2.44; z-scoreMRSA+ rep 2 (intracellular MRSA; compound screen): -2.24; z-scoreMRSA+ rep 3 (intracellular MRSA; compound screen): -2.36; cell death (HeLa cells; Yes/No call from z-scoreHeLa): No; z-scoreHeLa mean (HeLa cells; compound screen): -0.87; z-scoreHeLa rep 1 (HeLa cells; compound screen): -0.91; z-scoreHeLa rep 2 (HeLa cells; compound screen): -0.97; z-scoreHeLa rep 3 (HeLa cells; compound screen): -0.74 |
| COC(=O)Nc1nc2ccc(Oc3ccc(NC(=O)Nc4cc(C(F)(F)F)ccc4F)cc3)cc2n1C [GW692089A] | – | – | – | 16.9% | 18.4% | 19.6% | -0.41 | -0.50 | -0.28 | -0.45 | No | No | 28483 | 25969 | 19864 | 0.00395 | -0.29 | 0.12 | 0.18 | No | – |
